{
  "source": "patent US10292949B2",
  "about": "“Pharmaceutical composition comprising rimeporide for treating diseases associated with insulin resistance and β-cell dysfunction” (Merck Patent GmbH, priority 2008, dated 2019)",
  "type_in_all_cases": "in vivo, rat",
  "key": {"[1]": {"test_system": "Obese, insulin resistant ZF (fa/fa) rats", "assay": "Pharmacological Study Report I: random and fasting blood glucose and plasma insulin levels", "conditions": "Compound A 150 mg/kg gavage twice daily, Compound B 40 mg/kg/day in chow", "experimental": "Obese, insulin resistant ZF (fa/fa) rats, which are treated from the age of 8-12 weeks, were used as IR model. Rats were housed with a 12-h light/dark cycle and free access to food and water unless otherwise noted. Studies were approved by the Institutional Animal Care and Use Committee. There were a total of 18 animals in the study (8 week-old males, provided by Charles River). Animals were randomized into 3 groups (vehicle group, Compound A group, Compound B group, n=6 per group) based on random glucose level at the beginning of the study: • Group 1: ZF rats (fa/fa) (n=6), compound A (150 mg/kg via gavage) • Group 2: ZF rats (fa/fa) (n=6), compound B (40 mg/kg/day as admixture to the chow) • Group 3: ZF rats (fa/fa) (n=6), vehicle treatment (control chow, vehicle gavage)\nGroup 1 and 3 animals were treated with compound A or vehicle (water) for 4 weeks (from age 8-12 weeks) via oral gavage, twice daily. Chow containing compound B was fed to Group 2 ad lib. Group 1 and Group 3 were fed with chow without compound B ad lib.\nRandom morning blood was withdrawn from ad libitium fed rats by a small cut in the tip of the tail. Blood was collected in heparinized tubes. Blood glucose concentrations were measured as per study design using a One-Touch glucometer (Lifescan Inc, Milptias, Calif.). Blood samples were placed on ice and centrifuged, and plasma stored at −20° C. until insulin was assayed. Rat plasma insulin concentration was measured with rat-specific ELISA kit (Crystal Chem Inc, Downers Grove, Ill.).\nRandom morning blood glucose levels were measured weekly between 9-11 a.m.\nAt the end of the study, rats were fasted for 4 hours and glucose and insulin level were measured."}, "[2]": {"test_system": "obese Zucker fa/fa rats", "assay": "Pharmacological Study Report II: HbA1c levels", "conditions": "Mean ± SD; for Base line HbA1c: baseline; for Change in HbA1c: change over the 4 week treatment period; for Week 4 HbA1c: week 4 of treatment", "experimental": "(§1) Thirty-six obese Zucker fa/fa and six lean Zucker fa/? male rats obtained from Charles River, were housed under normal vivarium conditions on a 12 hour light/dark cycle. The rats were kept two to a cage with food and water available ad lib, except during the weekly, 4 hour fasts. Water continued to be available during these fasts.\n(§2) Compound A corresponds to Cariporide. Compound B corresponds to 2-Methyl-4,5-di-(methylsulfonyl)-benzoyl-guanidine hydrochloride hydrate. Compounds A and B were supplied in powder form by Merck Serono. Drugs were incorporated into a pelleted diet (LabDiet, 5001) by Research Diets, Inc (New Brunswick, N.J.) at concentrations of 0.44 g/kg or 0.88 g/kg of diet to yield approximate doses of 40 or 80 mg/kg. The concentration was calculated based on the assumption that a 300 g rat would eat about 30 g/d of chow. The same chow, but without drug, was fed to rats of both the lean and fa/fa control group animals.\nOne week prior to the start of the study, all rats were weighed. After a 4 hour fast, a blood sample was obtained for the determination of blood glucose, insulin, and glycosylated hemoglobin levels (HbA1c). Animals were then sorted on the basis of these parameters into the groups listed below. Rats were eight weeks of age at the onset of treatment.\n(§3) • 1. ZF rats (fa/fa) (n=6) chow without drug • 2. ZF rats (fa/fa) (n=6) compound A (40 mg/kg/day) • 3. ZF rats (fa/fa) (n=6) compound A (80 mg/kg/day) • 4. ZF rats (fa/fa) (n=6) compound B (40 mg/kg/day) • 5. ZF rats (fa/fa) (n=6) compound B (80 mg/kg/day) • 6. lean Zucker rats (fa/?) (n=6) chow without drug Dosing Regime\nTreatment appropriate chow was continuously available for 4 weeks except during scheduled 4 h fasts conducted once per week.\nHbA1c level were determined using a DCA 2000 analyzer (Bayer Healthcare LLC, Elkhart Ind.) prior to beginning the study and again at the end of the 4th week treatment period."}, "[3]": {"test_system": "obese Zucker fa/fa rats", "assay": "Pharmacological Study Report II: 2H-glucose disposal test (2H-GDT) on Days 0, 14 and 28", "experimental": "as §1, §2, §3\nInsulin sensitivity (SI) and pancreatic compensation (PC) were measured by conducting ^2H-Glucose disposal test on Days 0, 14 and 28.\nTime −4 h: Before the fast was begun on the morning of the GDT, a blood sample was taken to determine the random glucose level (see above). An additional blood sample was collected to determine the baseline ^2H2O and ^18O enrichments. The rats were weighed and the 4 h fast was begun. Water was available during the fast.\nTime −3 h: One 1 hour after the start of the fast, 1.75 mg/g body weight of 10% H2^18O was administered by oral gavage (^2H2O-free H2O^18 water; 10% ^18O atom from Spectra; Cat. No 51350).\nTime 0: 4 hours after the start of the fast, the blood glucose and insulin levels were determined. Rats received 4 ml/kg of a 50% glucose solution (comprised of 25% [6,6-^2H2] glucose and 25% D-glucose) by oral gavage.\nAt times 15, 30, 60 and 90 min post glucose challenge, blood glucose concentrations were again determined by a glucometer reading from tail vein blood. Additional blood samples were collected for insulin determinations. At 60 and 90 min post glucose challenge, whole blood was collected to determine the ^2H2O and H2^18O enrichments. All blood samples were centrifuged and the plasma was stored at −20° C. until assayed. The deuterium and oxygen-18 isotope enrichments of body water were determined by IRIS analysis of the water distillate of the plasma samples.\n^2H2O enrichment was converted to mmol by multiplying enrichment (^2H2O APE) by the total body water pool size and dividing by 20 (molecular weight of ^2H2O). Total ^2H2O produced was calculated as the percent of the [6,6-^2H2] glucose load administered. Plasma insulin and glucose areas under the curve (AUC 60 min) were calculated using the trapezoidal method (GraphPad Prism).\nTwo parameters were calculated from the ^2H-GDT: • 1. Insulin sensitivity index (SI)=^2H2O production (% load)/(glucose AUC×insulin AUC). • 2. Pancreatic compensation (PC)=the absolute ^2H2O production as a percent of total [6,6-^2H2] glucose load (% load)/the integrated glucose response (glucose AUC; to correct for insulin-independent utilization). Statistics\nOverall results of glucose and insulin measures were analyzed by a 2 way repeated measures ANOVA using drug and time (repeated) as factors. The primary analysis was followed by Bonferroni posttests to compare all groups. Data are considered significant at p<0.05. AUC 60 min values for glucose and insulin were analyzed by 1 way ANOVA followed by Tukey's comparison of all groups."}, "[4]": {"conditions": "40 and 80 mg/kg (neither dose), 4 weeks"}},
  "data": [
    {"smiles": "CC(C)c1ccc(C(=O)NC(=N)N)cc1S(C)(=O)=O", "note": "[Compound A, Cariporide]", "values": [
      {"measurement": "Random morning blood glucose level vs vehicle group", "setting": "[1]; 4 weeks", "value": "trended towards lower glucose level"},
      {"measurement": "Fasting glucose levels, post vs pre treatment", "setting": "[1]; 4 h fast, after 4 weeks", "value": "trended towards lower values post treatment"},
      {"measurement": "Fasting insulin levels compared to pre-treatment levels", "setting": "[1]; 4 h fast, after 4 weeks", "value": "significantly lower"},
      {"measurement": "Base line HbA1c", "setting": "[2]; 40 mg/kg group", "value": "4.0 ± 0.5", "unit": "%"},
      {"measurement": "Base line HbA1c", "setting": "[2]; 80 mg/kg group", "value": "3.9 ± 0.4", "unit": "%"},
      {"measurement": "Change in HbA1c", "setting": "[2]; 40 mg/kg", "value": "0.4 ± 0.6", "unit": "%"},
      {"measurement": "Change in HbA1c", "setting": "[2]; 80 mg/kg", "value": "0.4 ± 0.9", "unit": "%"},
      {"measurement": "Week 4 HbA1c", "setting": "[2]; 40 mg/kg in chow", "value": "4.4 ± 0.2", "unit": "%"},
      {"measurement": "Week 4 HbA1c", "setting": "[2]; 80 mg/kg in chow", "value": "4.4 ± 0.52", "unit": "%"},
      {"measurement": "Glucose level at the 90 min time point of the 2H-GDT vs fa/fa vehicle", "setting": "[3]; 40 mg/kg, 4 weeks of treatment", "value": "elevated above that of the fa/fa vehicle treated rats"},
      {"measurement": "Blood glucose and insulin concentrations in response to glucose challenge (2H-GDT)", "setting": "[3]; 4 weeks after start of treatment, 40 and 80 mg/kg", "value": "continued to have elevated"},
      {"measurement": "Glucose tolerance", "setting": "[3]; 4 weeks of treatment", "value": "did not improve"},
      {"measurement": "Glucose levels (either fasting or in response to challenge)", "setting": "[3]; [4]", "value": "Neither dose of Compound A significantly improved"},
      {"measurement": "Insulin sensitivity (SI)", "setting": "[3]; [4]", "value": "Neither dose of Compound A significantly improved"},
      {"measurement": "Pancreatic compensation (PC)", "setting": "[3]; [4]", "value": "Neither dose of Compound A significantly improved"},
      {"measurement": "Glucose or insulin response to glucose challenge (2H-GDT)", "setting": "[3]; after 2 weeks of treatment, 40 and 80 mg/kg", "value": "did not affect"}
    ]}
  ]
}
